{
  "source": "paper PMC5826917",
  "about": "“A small molecule inhibitor of Nicotinamide N-methyltransferase for the treatment of metabolic disorders” (Scientific Reports, 2018)",
  "key": {"[1]": {"tested_on": "K+ Channel Voltage Dependent", "assay": "Selectivity panel: K+ channel", "type": "binding", "conditions": "10 µM"}, "[2]": {"tested_on": "endogenous NNMT activity in differentiated 3T3L1 cells", "assay": "Cell based 3T3L1 assay (MNA levels by LC-MS/MS)", "design": "species or system mouse", "procedure": "(§1) PE-Sciex API-4000 triple quadrupole (PerkinElmerSciex Instruments, Boston, MA) mass spectrometer was employed for this analysis. […] Detection of the ions was performed in the multiple reaction monitoring (MRM) mode, monitoring the transition of the m/z 137 precursor ion to the m/z 92 product ion for MNA and m/z 141 precursor ion to the m/z 84 product ion for d4-MNA (internal standard).\n(§2) The supernatant was separated and transferred to pre-labeled HPLC vials and analyzed by LC-MS/MS system."}, "[3]": {"assay": "physchem", "conditions": "aqueous buffer"}, "[4]": {"target": "Dopamine Receptor 2 Short (D2S) (Homo sapiens, UniProt P14416)", "sequence (P14416 1-414 isoform P14416-2)": "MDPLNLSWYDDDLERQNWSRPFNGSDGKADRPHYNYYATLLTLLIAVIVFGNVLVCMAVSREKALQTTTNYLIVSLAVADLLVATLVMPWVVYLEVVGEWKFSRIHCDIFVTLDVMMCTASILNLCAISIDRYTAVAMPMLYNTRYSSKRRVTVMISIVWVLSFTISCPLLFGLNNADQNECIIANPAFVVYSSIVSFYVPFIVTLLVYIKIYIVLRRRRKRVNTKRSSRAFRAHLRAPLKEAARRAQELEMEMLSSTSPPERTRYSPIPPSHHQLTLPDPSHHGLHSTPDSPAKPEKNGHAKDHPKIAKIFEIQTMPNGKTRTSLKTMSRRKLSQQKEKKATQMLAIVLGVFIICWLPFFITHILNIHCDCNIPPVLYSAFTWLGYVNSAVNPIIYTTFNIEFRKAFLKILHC", "assay": "Selectivity panel: D2S", "type": "cell-based", "procedure": "Supplement 41598_2018_22081_MOESM1_ESM.docx, table 2: Supplementary table 2: Selectivity profile of JBSNF-000088 (at 10 µM) vs a panel of 34 receptors, channels and enzymes. | column: E% (agonistic); I% (antagonistic or inhibitory)"}, "[5]": {"conditions": "0.5 h"}, "[6]": {"target": "T1, NNMT (Homo sapiens, UniProt P40261)", "T1 sequence (P40261 1-264)": "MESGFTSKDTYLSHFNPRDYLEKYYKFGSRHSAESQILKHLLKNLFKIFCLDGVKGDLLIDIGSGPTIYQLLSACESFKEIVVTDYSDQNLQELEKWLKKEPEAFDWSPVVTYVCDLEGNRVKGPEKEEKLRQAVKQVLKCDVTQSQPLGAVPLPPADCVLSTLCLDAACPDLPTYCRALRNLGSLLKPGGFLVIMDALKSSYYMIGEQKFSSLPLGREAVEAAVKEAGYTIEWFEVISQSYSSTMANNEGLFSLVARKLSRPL", "assay": "biochemical", "design": "The full length NNMT proteins (1–264 amino acids) of human & mouse; 6 × His tag (N); TEV cleavage site (ENLYFQG) (N); made in house; host or cells: E. coli Rosetta2(DE3)pLysS", "procedure": "as §1, §2\nThe final assay reaction mixture contained a buffer of 100 mM Tris Hcl pH 7.5, 0.04% BSA, 2 mM dithiothreitol and 1% DMSO."}},
  "data": [
    {"smiles": "COc1ccc(C(N)=O)cn1", "note": "[JBSNF-000088, 6-methoxynicotinamide]", "values": [
      {"measurement": "I% (antagonistic or inhibitory), K+ Channel Voltage Dependent", "setting": "[1]", "value": 3, "unit": "%"},
      {"measurement": "IC50", "setting": "[2]; Mus musculus, 3T3-L1, 24 h treatment, MNA by LC-MS/MS", "value": 6.3, "unit": "µM"},
      {"measurement": "right shift in potency, 3T3L1 cells compared to U2OS cells", "setting": "[2]; ratio of cellular IC50 values", "value": "approximately 4 fold"},
      {"measurement": "solubility", "setting": "[3]", "value": "> 200", "unit": "µM"},
      {"measurement": "E% (agonistic), D2S", "setting": "[4]; 10 µM", "value": -3, "unit": "%"},
      {"measurement": "inhibition at 10 µM", "setting": "[4]; read-out: I% (antagonistic or inhibitory), D2S", "value": 12, "unit": "%"},
      {"measurement": "Metabolic stability mouse microsomes (% remaining)", "setting": "[5]", "value": 79, "unit": "%"},
      {"measurement": "IC50", "setting": "[6]", "value": 2.4, "unit": "µM"}
    ]}
  ]
}
